Measurements from PubChem BioAssay (NCI).
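In this assay, cells in 96-well plates receive the compound at five concentrations for 48 hours. Endpoints are linearly interpolated between the surrounding concentrations. Abbreviation: GI50, concentration required for 50% inhibition of growth. TGI marks complete inhibition of growth.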

What was measured:
Assay in all cases: NCI-60 cell line screen, 48 h
RXF 393 renal = test system: RXF 393 renal
SK-MEL-2 melanoma = test system: SK-MEL-2 melanoma
SR leukemia = test system: SR leukemia
HOP-62 NSCLC = test system: HOP-62 NSCLC
HCT-15 colon = test system: HCT-15 colon
SNB-75 CNS = test system: SNB-75 CNS
K-562 leukemia = test system: K-562 leukemia
COLO 205 colon = test system: COLO 205 colon
MCF7 breast = test system: MCF7 breast
RPMI-8226 leukemia = test system: RPMI-8226 leukemia

SMILES | TGI (RXF 393 renal) [µM] | TGI (SK-MEL-2 melanoma) [µM] | TGI (SR leukemia) [µM] | TGI (HOP-62 NSCLC) [µM] | TGI (HCT-15 colon) [µM] | TGI (SNB-75 CNS) [µM] | TGI (K-562 leukemia) [µM] | TGI (COLO 205 colon) [µM] | TGI (MCF7 breast) [µM] | TGI (RPMI-8226 leukemia) [µM] | GI50 (RXF 393 renal) [µM] | GI50 (SK-MEL-2 melanoma) [µM] | GI50 (HOP-62 NSCLC) [µM] | GI50 (MCF7 breast) [µM] | GI50 (HCT-15 colon) [µM] | GI50 (SNB-75 CNS) [µM] | GI50 (COLO 205 colon) [µM] | GI50 (SR leukemia) [µM] | GI50 (K-562 leukemia) [µM] | GI50 (RPMI-8226 leukemia) [µM]
Cc1ccc(C2=Nc3ccccc3NC(=O)C2)cc1 | > 100 | > 100 | > 100 | > 100 | > 100 | > 100 | > 100 | > 100 | – | – | – | – | – | – | – | – | – | – | – | –
FC(F)(F)C1(C(F)(F)F)OC(Cl)(Cl)C(Cl)(Cl)O1 | > 10 | > 10 | – | > 10 | > 10 | – | – | > 10 | > 10 | – | – | – | – | – | – | – | – | – | – | –
COC(=O)CC1(O)C(C=C(C)C)C(C(=O)OC)C(=O)C(C(=O)OC)C1C(=O)OC (stereo not drawn) | > 100 | > 100 | > 100 | > 100 | > 100 | – | > 100 | > 100 | > 100 | > 100 | – | – | – | – | – | – | – | – | – | –
CCC(/C=C/c1ccccc1)=N\NC(=S)N/N=C(/C=C/c1ccccc1)CC | > 100 | – | 91.3 | > 100 | > 100 | > 100 | 98.8 | > 100 | > 100 | > 100 | – | – | – | – | – | – | – | – | – | –
CC1(C)N=C(N)N=C(N)N1c1ccc(CCCCc2ccc(Cl)cc2Cl)cc1 | 20.4 | 13.5 | 60.4 | 10.6 | > 100 | – | > 100 | 4.88 | 11.8 | 19.2 | – | – | – | – | – | – | – | – | – | –
CC1CSc2nc3[nH]c(=S)[nH]c3c(=O)n2C1 (stereo not drawn) | > 100 | – | – | > 100 | > 100 | > 100 | > 100 | > 100 | > 100 | > 100 | – | – | – | – | – | – | – | – | – | –
C[C@@H]1CCN(C(=O)CC#N)C[C@@H]1N(C)c1ncnc2[nH]ccc12 | 85.3 | > 100 | – | > 100 | > 100 | 84.5 | – | > 100 | > 100 | – | 16.3 | > 100 | 40.6 | > 100 | > 100 | 12.9 | > 100 | – | – | –
CCOP(=O)(OCC)C(Cc1ccccc1)N=C(c1ccccc1)c1ccccc1 (stereo not drawn) | – | 38.2 | > 100 | 35.2 | 25 | 24.2 | 41.9 | 28.7 | 31.2 | > 100 | – | – | – | – | – | – | – | – | – | –
O/N=C1\CC2(N3CCOCC3)CCC1(Cc1ccccc1)CC2 | 42 | 85 | > 100 | 47.8 | > 100 | 34.9 | > 100 | > 100 | > 100 | – | – | – | – | – | – | – | – | – | – | –
Cn1c2c(c3ccccc31)CC(=O)N1CCCCC1C21OCCO1 (stereo not drawn) | > 100 | > 100 | > 100 | > 100 | > 100 | > 100 | – | > 100 | > 100 | > 100 | – | – | – | – | – | – | – | – | – | –
CCN(CC)C(=S)N/N=C(\C)c1ccccc1O | > 100 | 80.7 | > 100 | > 100 | > 100 | > 100 | > 100 | > 100 | – | > 100 | – | – | – | – | – | – | – | – | – | –
COc1ccccc1/C=C1/Sc2scc(CC(=O)Nc3ccccc3)[n+]2C1=O | 80.8 | 73.3 | – | > 100 | > 100 | > 100 | – | 65.4 | > 100 | – | – | – | – | – | – | – | – | – | – | –
COc1cc2cnc3c(c2cc1OC)Cc1cc2c(cc1-3)OCO2 | > 92.5 | – | 0.0145 | 17.4 | > 100 | > 49.3 | > 100 | > 100 | > 81.8 | 85.7 | 0.0322 | – | < 0.0268 | 0.0333 | < 0.01 | 0.0109 | < 0.01 | < 0.01 | < 0.01 | < 0.01
CC(=O)O/C(=C(/C#N)C(=O)O)C1C(C(=O)O)C(c2ccccc2[N+](=O)[O-])C=C(c2ccco2)N1c1ccncc1 (stereo not drawn) | – | 22.2 | – | 21.6 | 4.83 | 20.1 | > 100 | 7.82 | 4.38 | 4.46 | – | – | – | – | – | – | – | – | – | –
CCCN(CCC)C(=O)Cc1c2n(c3ccccc13)Cc1ccccc1-2 | > 100 | > 100 | > 100 | > 100 | > 100 | > 100 | > 100 | > 100 | – | > 100 | – | – | – | – | – | – | – | – | – | –
Cc1cc2c(cc1Cl)Sc1nnc(C)n1S2(=O)=O | 47.4 | – | – | 57.9 | 25.5 | 47.5 | 35.4 | 30.7 | 18.1 | – | – | – | – | – | – | – | – | – | – | –
COC(=O)c1cc(C)ccc1CC(Cc1ccccc1C)C(=O)OC (stereo not drawn) | 77.6 | – | – | > 100 | > 100 | > 100 | > 100 | > 100 | 94.8 | – | – | – | – | – | – | – | – | – | – | –
CNS(=O)(=O)NN(C)S(=O)(=O)c1ccc(Br)cc1 | > 100 | > 100 | > 100 | > 100 | > 100 | > 100 | > 100 | > 100 | – | > 100 | – | – | – | – | – | – | – | – | – | –
N#Cc1nc(Cc2ccccc2)oc1N | > 100 | > 100 | > 100 | > 100 | > 100 | – | > 100 | > 100 | > 100 | > 100 | – | – | – | – | – | – | – | – | – | –
Cc1ccc(NNc2cc(=O)[nH]c(=O)[nH]2)cc1Cl | 30.4 | 30.9 | > 100 | > 100 | 22.7 | > 100 | > 100 | 30.6 | – | 49.2 | – | – | – | – | – | – | – | – | – | –
Cc1[nH]n(-c2nc(O)c(C)c(=O)[nH]2)c(=O)c1CCO | 93.3 | > 100 | – | – | > 100 | > 100 | > 100 | > 100 | > 100 | > 100 | – | – | – | – | – | – | – | – | – | –
O=C(CN=C(CN(c1ccccc1)c1ccccc1)Oc1c([N+](=O)[O-])cc([N+](=O)[O-])cc1[N+](=O)[O-])N1CCNCC1 | > 100 | – | > 100 | > 100 | > 100 | > 100 | > 100 | > 100 | > 100 | > 100 | – | – | – | – | – | – | – | – | – | –
CC(=O)/C=C/c1c[nH]c(=O)[nH]c1=O | 416 | 444 | – | 765 | 523 | 681 | 967 | 395 | 516 | 679 | – | – | – | – | – | – | – | – | – | –
